Test results as given in US20060159772A1, “Fungicidal compositions” (priority 2002, published 2006).
Read-outs that look alike come from different tables or passages of the source.

How the values were obtained:
Plasmopara viticola = experiment: Greenhouse test against downy mildew, preventive application to vine leaves (Example 4); assay type: in vivo, Plasmopara viticola on vine plants, cv. Dolcetto; conditions: for pest or weed control at 0.2 ppm: 0.20 ppm
Experimental: Determination of the fungicidal efficacy against downy mildew (Plasmopara viticola) in preventive application to vine leaves in greenhouse.
Leaves of vine plants, cv. Dolcetto, grown up in pots in conditioned environment at 25° C. and 60% relative humidity, were sprayed on both sides with hydroacetonic solutions (20% of acetone by volume) of the compounds under testing, the potassium phosphite (K2HPO3+KH2PO3) aqueous solutions and the mixtures of both components.
Seven days after the treatments, the leaves of treated plants and untreated controls were sprayed on the lower surface with aqueous suspension of Plasmopara viticola conidia (200.000 conidia/ml); after beeing kept for 24 h at 21° C. in environment moist at saturation, the plants were transfered to other conditioned environment at 70% relative humidity and 21° C. for 7 days.
After this period the degree of infection was evaluated and the activity of the compounds tested was expressed as % of disease control in comparison to the untreated controls: 100=healty plant; 0=completely infected plant.
In tables 6-20 are reported the results obtained for the compounds tested alone and in mixture with potassium phosphite at the indicated dosages. When the % disease control value found is higher than the value expected applying the Limpel formula (see Example 3), a synergic effect is verified.

Phytophthora infestans = assay type: in vivo, Phytophthora infestans on potato plants, Miura variety; conditions: 1400 g/hl active principle; average of 3 tests on potato plants in Great Britain, 2002

CO/C=C(/C(=O)OC)c1ccccc1Oc1cc(Oc2ccccc2C#N)ncn1 [azoxystrobin]
% Disease Control: found (Plasmopara viticola; 0.11 ppm, Table 11): 69%

CC(C)OC(=O)N[C@H](C(=O)N[C@H](C)c1nc2ccc(F)cc2s1)C(C)C [benthiavalicarb]
pest or weed control at 0.25 ppm (Plasmopara viticola; Plasmopara viticola, topical, 168 h, 0.25 ppm, Table 10, read-out: % Disease Control: found): 47%

N#Cc1c(Cl)c(Cl)c(Cl)c(C#N)c1Cl [chlorothalonil, 1,3-dicyano-2,4,5,6-tetrachlorobenzene]
pest or weed control at 7.5 ppm (Plasmopara viticola; Plasmopara viticola, topical, 168 h, 7.5 ppm, Table 16, read-out: % Disease Control: found): 46%

Cc1ccc(-c2c(Cl)nc(C#N)n2S(=O)(=O)N(C)C)cc1 [cyazofamide, 2-cyano-4-chloro-′5-(4-methylphenyl)-1-(N,N-dimethylaminosulfamoyl)-imidazole]
% Disease Control: found (Plasmopara viticola; 15 ppm, Table 14): 68%

CCNC(=O)NC(=O)C(C#N)=NOC [cymoxanil, 1-(2-cyano-2-methoxyimino-acetyl)-3-ethyl urea]
pest or weed control at 30 ppm (Plasmopara viticola; Plasmopara viticola, topical, 168 h, 30 ppm, Table 6, read-out: % Disease Control: found): 59%

COc1ccc(C(=CC(=O)N2CCOCC2)c2ccc(Cl)cc2)cc1OC [dimethomorph, (E,Z)-4-[3-(4-chlorophenyl)-3-(3,4-dimethoxyphenyl)acryloyl]-morpholine]
pest or weed control at 0.45 ppm (Plasmopara viticola; Plasmopara viticola, topical, 168 h, 0.45 ppm, Table 15, read-out: % Disease Control: found): 73%

CC1(c2ccc(Oc3ccccc3)cc2)OC(=O)N(Nc2ccccc2)C1=O (centres unmarked) [famoxadone, 5-methyl-5-(4-phenoxyphenyl)-3-(phenylamino)oxazolidin-2,4-dione]
pest or weed control at 0.45 ppm (Plasmopara viticola; Plasmopara viticola, topical, 168 h, 0.45 ppm, Table 12, read-out: % Disease Control: found): 56%

O=[N+]([O-])c1cc(C(F)(F)F)c(Cl)c([N+](=O)[O-])c1Nc1ncc(C(F)(F)F)cc1Cl [fluazinam, 3-chloro-N-(3-chloro-5-trifluoromethyl-2-pyridyl)-α,α,α-trifluoro-2,6-dinitro-p-toluidine]
pest or weed control at 20 ppm (Plasmopara viticola; Plasmopara viticola, topical, 168 h, 20 ppm, Table 20, read-out: % Disease Control: found): 48%

Cc1ccc(C(C)NC(=O)C(NC(=O)OC(C)C)C(C)C)cc1 (centres unmarked) [iprovalicarb, O-(1-methyl-ethyl)-N-[2-methyl-1-[[[1-(4-methylphenyl)-ethyl]amino]carbonyl]propyl]carbamate]
% Disease Control: found (Plasmopara viticola; 0.45 ppm, Table 9): 50%

COCC(=O)N(c1c(C)cccc1C)[C@H](C)C(=O)OC [mefenoxam, methyl N-(2-methoxyacetyl)-N-2,6-xylyl-R-alaninate]
pest or weed control at 0.1 ppm (Plasmopara viticola; Plasmopara viticola, topical, 168 h, 0.10 ppm, Table 8, read-out: % Disease Control: found): 48%

COCC(=O)N(c1c(C)cccc1C)C(C)C(=O)OC (centres unmarked) [metalaxyl, methyl N-(2-methoxyacetyl)-N-2,6-xylyl-RS-alaninate]
pest or weed control at 0.2 ppm (Plasmopara viticola; Plasmopara viticola, topical, 168 h, Table 7, read-out: % Disease Control: found): 45%

COCC(=O)N(c1c(C)cccc1C)N1CCOC1=O [oxadixyl, 2-methoxy-N-(2-oxo-1,3-oxazolidin-3-yl)aceto-2′,6′-xylidide]
pest or weed control at 0.2 ppm (Plasmopara viticola; Plasmopara viticola, topical, 168 h, Table 18, read-out: % Disease Control: found): 49%

potassium phosphite (K2HPO3+KH2PO3)
% disease control leaves (Phytophthora infestans): 23% | % Disease Control: found (Plasmopara viticola; 60 ppm, inoculation 7 days after treatment): 35%
